Patent publication US12522596B2, “Compounds as GLP-1R agonists” (Terns Pharmaceuticals, Inc., priority 2021, dated 2026)
Several values for one entry are separate records, joined by “and”; a condition that tells them apart may be missing. Equal values may be shown once. Read-outs that look alike come from different tables or passages of the source. Marks after values point to notes of the source that are not given here.

Assay: Pharmacokinetics in hGLP-1R mice after oral dosing
Format: in vivo, male C57BL/6J hGLP-1R mouse
Experimental: IPGTT (120 min)—PK bleeding: 40 μL blood samples (all treatment groups) were collected from mice under the jaw at IPGTT-120 min after blood glucose measurement into pre-chilled EDTA-2K tubes. Blood samples were processed for plasma by centrifugation at 4° C., 3200×g for 10 min. 15 μL plasma was stored at −80° C. for PK analysis. From 4 mice in Group 7 of the PD cohort, whole brain was collected after blood is harvested at 120 min post dose, rinsed with saline and patted dry and placed into a pre-weighed tube and stored at −80° C. collected for PK analysis.
PK bleeding group design is described in Table 9.
PK bleeding: 30 μL blood was collected at 0.25, 0.5, 1, 2, 4, and 8 h. Blood samples were processed for plasma by centrifugation at 4° C., 3200×g for 10 min. 12 μL plasma was collected at −80° C. for further analysis. From 3 mice in Group 7 of the PK cohort, whole brain was collected after blood is harvested at 8 hr post dose, rinsed with saline and patted dry and placed into a pre-weighed tube and stored at −80° C. collected for PK analysis.
For plasma: An aliquot of 3 μL sample was protein precipitated with 60 μL internal standard (100 ng/mL Labetalol & 100 ng/ml Dexamethasone & 100 ng/ml Tolbutamide & 100 ng/mL Verapamil & 100 ng/ml Glyburide & 100 ng/ml Celecoxib in ACN) and then the mixture was vortex-mixed for 10 min at 800 rpm and centrifuged for 15 min at 3220×g, 4° C.
The linear/log trapezoidal rule was applied in obtaining the PK parameters. Individual plasma concentration values that were below the lower limit of quantitation (LOQ) were excluded from the PK parameter calculation. The nominal dose levels and nominal sampling times were used in the calculation of all pharmacokinetic parameters.

[1] = hGLP-1R mouse plasma, PO 0.3 mg/kg, individual mice, 0.3 mg/kg
[2] = hGLP-1R mouse plasma, PO 0.3 mg/kg, mean
[3] = hGLP-1R mouse plasma, PO 1 mg/kg, individual mice, 1 mg/kg
[4] = hGLP-1R mouse plasma, PO 1 mg/kg, mean

With `N#Cc1ccc(COc2cccc(C3CCN(Cc4nc5ccc(C(=O)O)cc5n4C[C@@H]4CCO4)CC3)n2)c(F)c1` [Reference Compound A, reference compound] the “increase of exposure with dose (dose proportionality)” value (hGLP-1R mice, PO, Reference Compound A 0.3-1 mg/kg, Compound 2 0.3-3 mg/kg) was “approximately dose proportional manner”, the Concentration (hGLP-1R mouse plasma collected at 120 min (IPGTT cohort), PO 0.3 mg/kg, individual animals, 0.3 mg/kg) was 8.61 ng/mL and 8.10 ng/mL and 5.55 ng/mL and 7.19 ng/mL and 6.60 ng/mL and 6.14 ng/mL and the Concentration (hGLP-1R mouse plasma collected at 120 min (IPGTT cohort), PO 1 mg/kg, individual animals, 1 mg/kg) was 29.7 ng/mL and 31.0 ng/mL and 17.9 ng/mL and 14.2 ng/mL and 15.9 ng/mL and 14.9 ng/mL and 26.5 ng/mL. The Concentration (hGLP-1R mouse plasma, PO 0.3 mg/kg, 0.25 h, individual animals, 0.3 mg/kg) was 11.2 ng/mL and 16.7 ng/mL and 46.8 ng/mL, the Concentration (hGLP-1R mouse plasma, PO 0.3 mg/kg, 0.5 h, individual animals, 0.3 mg/kg) was 17.6 ng/mL and 14.6 ng/mL and the Concentration (hGLP-1R mouse plasma, PO 0.3 mg/kg, 1 h, individual animals, 0.3 mg/kg) was 13.4 ng/mL and 23.5 ng/mL and 11.1 ng/mL. For the same compound, the Concentration (hGLP-1R mouse plasma, PO 0.3 mg/kg, 2 h, individual animals, 0.3 mg/kg) was 2.43 ng/mL and 4.91 ng/mL and 2.76 ng/mL, the Concentration (hGLP-1R mouse plasma, PO 0.3 mg/kg, 4 h, individual animals, 0.3 mg/kg) was “BQL” and the Concentration (hGLP-1R mouse plasma, PO 0.3 mg/kg, 8 h, individual animals) was “BQL”. The Tlast (hGLP-1R mouse plasma, PO 0.3 mg/kg, individual mice) was 2.00 h, the AUC0-inf [1] was 22.9 ng·h/mL and 40.5 ng·h/mL and 19.4 ng·h/mL and the AUC0-last [1] was 21.2 ng·h/mL and 35.4 ng·h/mL and 17.0 ng·h/mL. The AUCExtra [1] was 7.39% and 12.7% and 12.4%, the AUMCExtra [1] was 21.1% and 35.8% and 32.0% and the Cmax [1] was 19.6 ng/mL and 46.8 ng/mL and 14.6 ng/mL. The MRT0-inf [1] was 1.08 h and 1.11 h, the MRT0-last [1] was 0.797 h and 0.861 h and the T1/2 [1] was 0.727* h and 0.602 h. The Tmax [1] was 0.250 h, the AUCExtra [2] was 10.8% and the AUMCExtra [2] was 29.6%. For the same compound, the Tlast [2] was 2.00 h, the Concentration (hGLP-1R mouse plasma, PO 1 mg/kg, 0.25 h, individual animals, 1 mg/kg) was 31.9 ng/mL and 31.8 ng/mL and the Concentration (hGLP-1R mouse plasma, PO 1 mg/kg, 0.5 h, individual animals, 1 mg/kg) was 40.2 ng/mL and 41.2 ng/mL. The Concentration (hGLP-1R mouse plasma, PO 1 mg/kg, 1 h, individual animals, 1 mg/kg) was 48.7 ng/mL and 23.7 ng/mL and 46.0 ng/mL, the Concentration (hGLP-1R mouse plasma, PO 1 mg/kg, 2 h, individual animals, 1 mg/kg) was 22.4 ng/mL and 5.72 ng/mL and 15.4 ng/mL and the Concentration (hGLP-1R mouse plasma, PO 1 mg/kg, 4 h, individual animals, 1 mg/kg) was “BQL and 3.21 ng/mL”. For the same compound, the Concentration (hGLP-1R mouse plasma, PO 1 mg/kg, 8 h, individual animals) was “BQL”, the AUC0-inf [3] was 86.4 ng·h/mL and 89.9 ng·h/mL and the AUC0-last [3] was 68.7 ng·h/mL and 86.7 ng·h/mL. For the same compound, the AUCExtra [3] was 3.91% and 20.5% and 3.54%, the AUMCExtra [3] was 13.8% and 58.3% and 18.2% and the Cmax [3] was 40.2 ng/mL and 46.0 ng/mL. For the same compound, the MRT0-inf [3] was 1.45 h and 4.55 h and 2.05 h, the MRT0-last [3] was 2.39 h and 1.74 h and the T1/2 [3] was 0.791 h and 3.42* h and 1.77* h. The Tlast [3] was 4.00 h and 8.00 h (2×), the Tmax [3] was 1.00 h and the AUCExtra [4] was 9.32%. For the same compound, the AUMCExtra [4] was 30.1%, the AUC(0-t) (male, C57BL/6J hGLP-1R, mouse, plasma, po, 0.3 mg/kg, hGLP-1R mice, total, PO 0.3 mg/kg, read-out: AUClast Mean) was 24.5 ng·h/mL and the Cmax (male, C57BL/6J hGLP-1R, mouse, plasma, po, 0.3 mg/kg, hGLP-1R mice, total, PO 0.3 mg/kg, read-out: Cmax Mean) was 27 ng/mL. It also gave a half-life (male, C57BL/6J hGLP-1R, mouse, plasma, po, 0.3 mg/kg, hGLP-1R mice, total, PO 0.3 mg/kg, read-out: T1/2 (converted)) of 0.604 h, a Tmax (male, C57BL/6J hGLP-1R, mouse, plasma, po, 0.3 mg/kg, hGLP-1R mice, total, PO 0.3 mg/kg, read-out: Tmax Median) of 0.5 h and a concentration at 120 min (male, C57BL/6J hGLP-1R, mouse, plasma, po, 0.3 mg/kg, hGLP-1R mouse plasma collected at 120 min (IPGTT cohort), PO 0.3 mg/kg, individual animals, read-out: Concentration) of 7.91 ng/mL.
